PubChem BioAssay (NCI)
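At the GI50, growth is halved. TGI denotes the concentration required for complete inhibition of growth.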

What was measured:
Assay in all cases: NCI tumour cell line growth inhibition, 384-well format
786-0 renal = tested on: 786-0 renal
A498 renal = tested on: A498 renal
A549 NSCLC = tested on: A549 NSCLC
BT-549 breast = tested on: BT-549 breast
CAKI-1 renal = tested on: CAKI-1 renal
CCRF-CEM leukemia = tested on: CCRF-CEM leukemia
COLO 205 colon = tested on: COLO 205 colon
DU-145 prostate = tested on: DU-145 prostate
EKVX NSCLC = tested on: EKVX NSCLC
HCC-2998 colon = tested on: HCC-2998 colon
HCT-116 colon = tested on: HCT-116 colon
HCT-15 colon = tested on: HCT-15 colon
HL-60(TB) leukemia = tested on: HL-60(TB) leukemia
HOP-62 NSCLC = tested on: HOP-62 NSCLC
HOP-92 NSCLC = tested on: HOP-92 NSCLC
HS 578T breast = tested on: HS 578T breast
HT29 colon = tested on: HT29 colon
IGROV1 ovarian = tested on: IGROV1 ovarian
K-562 leukemia = tested on: K-562 leukemia
KM12 colon = tested on: KM12 colon
LOX IMVI melanoma = tested on: LOX IMVI melanoma
M14 melanoma = tested on: M14 melanoma
MALME-3M melanoma = tested on: MALME-3M melanoma
MCF7 breast = tested on: MCF7 breast
MDA-MB-231 breast = tested on: MDA-MB-231 breast
MDA-MB-435 melanoma = tested on: MDA-MB-435 melanoma
MDA-MB-468 breast = tested on: MDA-MB-468 breast
MOLT-4 leukemia = tested on: MOLT-4 leukemia
NCI-H226 lung = tested on: NCI-H226 lung
NCI-H23 lung = tested on: NCI-H23 lung
NCI-H322M lung = tested on: NCI-H322M lung
NCI-H460 NSCLC = tested on: NCI-H460 NSCLC
NCI-H522 lung = tested on: NCI-H522 lung
NCI/ADR-RES ovarian = tested on: NCI/ADR-RES ovarian
OVCAR-3 ovarian = tested on: OVCAR-3 ovarian
OVCAR-4 ovarian = tested on: OVCAR-4 ovarian
OVCAR-5 ovarian = tested on: OVCAR-5 ovarian
PC-3 prostate = tested on: PC-3 prostate
RPMI-8226 leukemia = tested on: RPMI-8226 leukemia
RXF 393 renal = tested on: RXF 393 renal
SF-268 CNS = tested on: SF-268 CNS
SF-295 CNS = tested on: SF-295 CNS
SF-539 CNS = tested on: SF-539 CNS
SK-MEL-2 melanoma = tested on: SK-MEL-2 melanoma
SK-MEL-28 melanoma = tested on: SK-MEL-28 melanoma
SK-MEL-5 melanoma = tested on: SK-MEL-5 melanoma
SK-OV-3 ovarian = tested on: SK-OV-3 ovarian
SNB-19 CNS = tested on: SNB-19 CNS
SNB-75 CNS = tested on: SNB-75 CNS
SR leukemia = tested on: SR leukemia
SW-620 colon = tested on: SW-620 colon
T-47D breast = tested on: T-47D breast
TK-10 renal = tested on: TK-10 renal
U251 glioblastoma = tested on: U251 glioblastoma
UACC-257 melanoma = tested on: UACC-257 melanoma
UACC-62 melanoma = tested on: UACC-62 melanoma
UO-31 renal = tested on: UO-31 renal

Cc1nc(N)sc1-c1ccnc(Nc2ccc(N3CCOCC3)cc2)n1
GI50 ([…]-0 renal): 1420 nM
TGI (786-0 renal): 6740 nM
GI50 (A498 renal): 433 nM
TGI (A498 renal): 3720 nM
GI50 (A549 NSCLC): 440 nM
TGI (A549 NSCLC): 7610 nM
GI50 (BT-549 breast): 190 nM
TGI (BT-549 breast): 676 nM
GI50 (CAKI-1 renal): 381 nM
TGI (CAKI-1 renal): 2050 nM
GI50 (CCRF-CEM leukemia): 127 nM
TGI (CCRF-CEM leukemia): 1060 nM
GI50 (COLO 205 colon): 756 nM
TGI (COLO 205 colon): 16200 nM
GI50 (DU-145 prostate): 709 nM
TGI (DU-145 prostate): 75500 nM
GI50 (EKVX NSCLC): 1350 nM
TGI (EKVX NSCLC): 5830 nM
GI50 (HCC-2998 colon): 3880 nM
TGI (HCC-2998 colon): 42000 nM
GI50 (HCT-116 colon): 557 nM
TGI (HCT-116 colon): 4160 nM
GI50 (HCT-15 colon): 328 nM
TGI (HCT-15 colon): 15300 nM
GI50 (HL-60(TB) leukemia): 642 nM
TGI (HL-60(TB) leukemia): 2400 nM
GI50 (HOP-62 NSCLC): 504 nM
TGI (HOP-62 NSCLC): 4580 nM
GI50 (HOP-92 NSCLC): 433 nM
TGI (HOP-92 NSCLC): 4490 nM
GI50 (HS 578T breast): 302 nM
TGI (HS 578T breast): 1560 nM
GI50 (HT29 colon): 596 nM
TGI (HT29 colon): 2140 nM
GI50 (IGROV1 ovarian): 305 nM
TGI (IGROV1 ovarian): 2090 nM
GI50 (K-562 leukemia): 1150 nM
TGI (K-562 leukemia): > 100000 nM
GI50 (KM12 colon): 378 nM
TGI (KM12 colon): 15300 nM
GI50 (LOX IMVI melanoma): 767 nM
TGI (LOX IMVI melanoma): 2530 nM
GI50 (M14 melanoma): 2410 nM
TGI (M14 melanoma): 28000 nM
GI50 (MALME-3M melanoma): 2700 nM
TGI (MALME-3M melanoma): > 100000 nM
GI50 (MCF7 breast): 1620 nM
TGI (MCF7 breast): 23200 nM
GI50 (MDA-MB-231 breast): 371 nM
TGI (MDA-MB-231 breast): 4950 nM
GI50 (MDA-MB-435 melanoma): 1740 nM
TGI (MDA-MB-435 melanoma): 18700 nM
GI50 (MDA-MB-468 breast): 132 nM
TGI (MDA-MB-468 breast): 330 nM
GI50 (MOLT-4 leukemia): 22.4 nM
TGI (MOLT-4 leukemia): 115 nM
GI50 (NCI-H226 lung): 416 nM
TGI (NCI-H226 lung): 2530 nM
GI50 (NCI-H23 lung): 1380 nM
TGI (NCI-H23 lung): 7560 nM
GI50 (NCI-H322M lung): 1650 nM
TGI (NCI-H322M lung): 26900 nM
GI50 (NCI-H460 NSCLC): 224 nM
TGI (NCI-H460 NSCLC): 3130 nM
GI50 (NCI-H522 lung): 142 nM
TGI (NCI-H522 lung): 3020 nM
GI50 (NCI/ADR-RES ovarian): 2650 nM
TGI (NCI/ADR-RES ovarian): > 100000 nM
GI50 (OVCAR-3 ovarian): 1070 nM
TGI (OVCAR-3 ovarian): 23100 nM
GI50 (OVCAR-4 ovarian): 46000 nM
TGI (OVCAR-4 ovarian): > 100000 nM
GI50 (OVCAR-5 ovarian): 854 nM
TGI (OVCAR-5 ovarian): 9330 nM
GI50 (PC-3 prostate): 463 nM
TGI (PC-3 prostate): 8530 nM
GI50 (RPMI-8226 leukemia): 375 nM
TGI (RPMI-8226 leukemia): 2120 nM
GI50 (RXF 393 renal): 922 nM
TGI (RXF 393 renal): 2570 nM
GI50 (SF-268 CNS): 663 nM
TGI (SF-268 CNS): 5730 nM
GI50 (SF-295 CNS): 627 nM
TGI (SF-295 CNS): 5700 nM
GI50 (SF-539 CNS): 499 nM
TGI (SF-539 CNS): 1900 nM
GI50 (SK-MEL-2 melanoma): 2190 nM
TGI (SK-MEL-2 melanoma): 5560 nM
GI50 (SK-MEL-28 melanoma): 1380 nM
TGI (SK-MEL-28 melanoma): 7040 nM
GI50 (SK-MEL-5 melanoma): 1600 nM
TGI (SK-MEL-5 melanoma): 8430 nM
GI50 (SK-OV-3 ovarian): 411 nM
TGI (SK-OV-3 ovarian): 4870 nM
GI50 (SNB-19 CNS): 4420 nM
TGI (SNB-19 CNS): > 100000 nM
GI50 (SNB-75 CNS): 653 nM
TGI (SNB-75 CNS): 2410 nM
GI50 (SR leukemia): 32.9 nM
TGI (SR leukemia): 121 nM
GI50 (SW-620 colon): 397 nM
TGI (SW-620 colon): 2390 nM
GI50 (T-47D breast): 5420 nM
TGI (T-47D breast): 68600 nM
GI50 (TK-10 renal): 376 nM
TGI (TK-10 renal): 7480 nM
GI50 (U251 glioblastoma): 1540 nM
TGI (U251 glioblastoma): 17900 nM
GI50 (UACC-257 melanoma): 3680 nM
TGI (UACC-257 melanoma): 9900 nM
GI50 (UACC-62 melanoma): 482 nM
TGI (UACC-62 melanoma): 3370 nM
GI50 (UO-31 renal): 619 nM
TGI (UO-31 renal): 3090 nM
